Measurements: PMC6693746 (PLoS Genetics, 2019)

Key:
dopamine receptor DopEcR [1] = target: T1, dopamine receptor DopEcR (Helicoverpa armigera, UniProt A0A386QW71); assay: saturation binding with isolated receptor, […] enzyme immunoassay; also displacement of DA (Ki […])
T1 construct: DopEcR-GFP-His (GenBank MG596302), isolated from Sf9 cells
T1 sequence (A0A386QW71 1-343): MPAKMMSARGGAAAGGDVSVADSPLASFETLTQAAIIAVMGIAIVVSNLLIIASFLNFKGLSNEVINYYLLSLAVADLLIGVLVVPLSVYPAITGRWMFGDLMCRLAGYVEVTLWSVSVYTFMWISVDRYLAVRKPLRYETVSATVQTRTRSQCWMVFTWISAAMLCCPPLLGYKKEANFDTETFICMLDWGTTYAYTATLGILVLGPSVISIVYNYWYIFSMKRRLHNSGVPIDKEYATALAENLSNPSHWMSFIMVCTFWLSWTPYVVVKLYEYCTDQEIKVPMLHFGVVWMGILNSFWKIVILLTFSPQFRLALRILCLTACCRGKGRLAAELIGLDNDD

dopamine receptor DopEcR [2] = target: T2, dopamine receptor DopEcR (Helicoverpa armigera, UniProt A0A386QW71, T113A/W160A/Y109A/Y68A); assay: saturation binding with isolated mutant receptor, […] enzyme immunoassay (lower Bmax)
T2 construct: DopEcR-M-GFP-His, isolated from Sf9 cells

ErGPCR-2 = target: T3, ErGPCR-2 (Helicoverpa armigera, UniProt A0A0U1ZWU3); assay: saturation binding with isolated receptor, […] enzyme immunoassay
T3 construct: ErGPCR-2-GFP-His, 7TM region and added signal peptide (GenBank AKA95280.1), isolated from Sf9 cells
T3 sequence (A0A0U1ZWU3 430-703 limits assumed): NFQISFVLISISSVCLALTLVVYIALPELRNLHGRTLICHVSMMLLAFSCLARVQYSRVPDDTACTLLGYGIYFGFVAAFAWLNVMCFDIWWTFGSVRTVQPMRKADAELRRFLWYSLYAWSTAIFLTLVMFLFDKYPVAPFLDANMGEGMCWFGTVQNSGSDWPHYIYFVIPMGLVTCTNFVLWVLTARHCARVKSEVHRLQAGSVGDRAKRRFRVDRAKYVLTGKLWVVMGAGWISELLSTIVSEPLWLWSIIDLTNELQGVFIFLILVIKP

dopamine receptor DopEcR [3] = target: dopamine receptor DopEcR (Helicoverpa armigera, UniProt A0A386QW71); assay: biochemical

| Structure (SMILES) | Kd (dopamine receptor DopEcR [1]) [nM] | Kd (dopamine receptor DopEcR [2]) [nM] | Kd (ErGPCR-2) [nM] | Kd (dopamine receptor DopEcR [3]) [nM] |
| --- | --- | --- | --- | --- |
| CC(C)(O)CC[C@@H](O)[C@](C)(O)[C@H]1CC[C@@]2(O)C3=CC(=O)[C@@H]4C[C@@H](O)[C@@H](O)C[C@]4(C)[C@H]3CC[C@]12C [20E, 20-hydroxyecdysone] | 18 ± 3 | 20.5 ± 1.98 | 23.3 ± 3.3 | – |
| NCCc1ccc(O)c(O)c1 [DA, dopamine] | – | – | – | 448 ± 101 |
